Measured values reported in PubChem BioAssay (NCI).
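Method: 48-hour compound exposure of cells in 96-well plates, five concentrations, linear interpolation of endpoints. The concentration for 50% growth inhibition is given as GI50. At the TGI there is no net growth.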

Experiments:
Experiment in all cases: NCI anticancer screen, dose series, 48 h; in the data active means GI50 below about 0.43 µM; inactive means the rest
[1] = tested on: MDA-MB-435
[2] = tested on: CCRF-CEM leukemia
[3] = tested on: OVCAR-5 ovarian
[4] = tested on: HCC-2998 colon
[5] = tested on: HS 578T breast
[6] = tested on: EKVX NSCLC
[7] = tested on: UO-31 renal
[8] = tested on: HOP-92 NSCLC
[9] = tested on: TK-10 renal
[10] = tested on: PC-3 prostate
[11] = tested on: SNB-19 CNS
[12] = tested on: SK-MEL-28 melanoma
[13] = tested on: OVCAR-8 ovarian
[14] = tested on: SF-295 CNS
[15] = tested on: NCI-H460 lung
[16] = tested on: MDA-MB-231 breast
[17] = tested on: U251 CNS
[18] = tested on: NCI-H522 lung
[19] = tested on: MALME-3M melanoma
[20] = tested on: COLO 205 colon
[21] = tested on: BT-549 breast
[22] = tested on: 786-0 renal
[23] = tested on: SW-620 colon
[24] = tested on: RXF 393 renal
[25] = tested on: HCT-116 colon
[26] = tested on: NCI-H226 lung
[27] = tested on: OVCAR-3 ovarian
[28] = tested on: HL-60(TB) leukemia
[29] = tested on: SF-539 CNS
[30] = tested on: ACHN renal
[31] = tested on: HOP-62 NSCLC
[32] = tested on: SK-MEL-2 melanoma
[33] = tested on: SK-MEL-5 melanoma
[34] = tested on: SF-268 CNS
[35] = tested on: HCT-15 colon
[36] = tested on: K-562 leukemia
[37] = tested on: SK-OV-3 ovarian
[38] = tested on: UACC-257 melanoma
[39] = tested on: M14 melanoma
[40] = tested on: KM12 colon
[41] = tested on: NCI-H23 lung
[42] = tested on: CAKI-1 renal
[43] = tested on: SR leukemia
[44] = tested on: SNB-75 CNS
[45] = tested on: A549 NSCLC
[46] = tested on: HT29 colon
[47] = tested on: MOLT-4 leukemia
[48] = tested on: IGROV1 ovarian
[49] = tested on: UACC-62 melanoma
[50] = tested on: NCI/ADR-RES ovarian
[51] = tested on: MCF7 breast
[52] = tested on: RPMI-8226 leukemia
[53] = tested on: OVCAR-4 ovarian
[54] = tested on: DU-145 prostate
[55] = tested on: LOX IMVI melanoma
[56] = tested on: SN12C renal
[57] = tested on: A498 renal

O=S(=O)(O)c1ccc(N=Nc2ccc(N=Nc3c(O)ccc4cc(S(=O)(=O)O)ccc34)cc2)cc1
> 100 µM: TGI [1] | TGI [2] | TGI [3] | TGI [4] | TGI [5] | TGI [6] | TGI [7] | TGI [8] | TGI [9] | TGI [10] | TGI [11] | TGI [12] | TGI [13] | TGI [14] | TGI [15] | TGI [16] | TGI [17] | TGI [18] | TGI [19] | TGI [20] | TGI [21] | TGI [22] | TGI [23] | TGI [24] | TGI [25] | TGI [26] | TGI [27] | TGI [28] | TGI [29] | TGI [30] | TGI [31] | TGI [32] | TGI [33] | TGI [34] | TGI [35] | TGI [36] | TGI [37] | TGI [38] | TGI [39] | TGI [40] | TGI [41] | TGI [42] | TGI [43] | TGI [44] | TGI [45] | TGI [46] | TGI [47] | TGI [48] | TGI [49] | TGI [50] | TGI [51] | TGI [52]

Cn1nc(-c2cccs2)cc1/N=C(\N)C(C)(C#N)Cc1ccccc1 (centres undefined)
60.8 µM: TGI [42]
> 100 µM: TGI [53] | TGI [2] | TGI [6] | TGI [7] | TGI [8] | TGI [11] | TGI [12] | TGI [18] | TGI [20] | TGI [21] | TGI [22] | TGI [23] | TGI [25] | TGI [31] | TGI [32] | TGI [34] | TGI [35] | TGI [36] | TGI [54] | TGI [37] | TGI [39] | TGI [43] | TGI [47] | TGI [48] | TGI [51]
62.2 µM: TGI [1]
93.7 µM: TGI [40]
53.3 µM: TGI [55]
79.3 µM: TGI [56]
75.7 µM: TGI [14]
90.4 µM: TGI [10]
49.5 µM: TGI [50]
64.7 µM: TGI [57]
46.5 µM: TGI [52]
90.3 µM: TGI [24]
37.4 µM: TGI [33]
58.1 µM: TGI [26]
75.8 µM: TGI [3]
inactive: GI50 [1] 25.7 µM | GI50 [53] 28.1 µM | GI50 [2] 46.4 µM | GI50 [3] 31.6 µM | GI50 [5] 18.3 µM | GI50 [6] 47.4 µM | GI50 [7] 44.1 µM | GI50 [8] 32.7 µM | GI50 [9] 27.3 µM | GI50 [10] 32.4 µM | GI50 [11] 62.7 µM | GI50 [12] 70.3 µM | GI50 [13] 37.1 µM | GI50 [14] 26.9 µM | GI50 [15] 26.7 µM | GI50 [16] 16.3 µM | GI50 [17] 21.9 µM | GI50 [18] 56.1 µM | GI50 [20] 39.9 µM | GI50 [21] 35.4 µM | GI50 [22] 39.7 µM | GI50 [23] 34.2 µM | GI50 [24] 49.3 µM | GI50 [25] 27.2 µM | GI50 [26] 20.4 µM | GI50 [27] 21.9 µM | GI50 [28] 26.5 µM | GI50 [29] 37.6 µM | GI50 [30] 20.7 µM | GI50 [31] 38.7 µM | GI50 [32] 63.7 µM | GI50 [33] 18.4 µM | GI50 [34] 36.9 µM | GI50 [35] 29.3 µM | GI50 [36] 33.3 µM | GI50 [54] 47.6 µM | GI50 [37] 44.8 µM | GI50 [38] 32 µM | GI50 [39] 29.9 µM | GI50 [40] 29 µM | GI50 [41] 27.7 µM | GI50 [42] 22.9 µM | GI50 [43] 45.2 µM | GI50 [55] 23.3 µM | GI50 [56] 24.8 µM | GI50 [45] 23.4 µM | GI50 [47] 67.1 µM | GI50 [57] 32 µM | GI50 [48] 54.2 µM | GI50 [49] 22.8 µM | GI50 [50] 23.7 µM | GI50 [51] 31.5 µM | GI50 [52] 15.5 µM
58.3 µM: TGI [27]
77.1 µM: TGI [29]
57.1 µM: TGI [45]
49.6 µM: TGI [49]
71.8 µM: TGI [38]
39.4 µM: TGI [16]
52.7 µM: TGI [17]
59.5 µM: TGI [28]
48.4 µM: TGI [30]
80.7 µM: TGI [15]
58.5 µM: TGI [5]
53.9 µM: TGI [41]
91.6 µM: TGI [9]
98.7 µM: TGI [13]

Cn1cc(NC(=O)c2cc(NC(=O)c3cc(NC=O)cn3C)cn2C)cc1C(=O)NCCC(=N)N
> 100 µM: TGI [1] | TGI [2] | TGI [3] | TGI [5] | TGI [6] | TGI [7] | TGI [9] | TGI [10] | TGI [11] | TGI [12] | TGI [13] | TGI [14] | TGI [15] | TGI [16] | TGI [17] | TGI [19] | TGI [20] | TGI [21] | TGI [22] | TGI [23] | TGI [24] | TGI [25] | TGI [26] | TGI [27] | TGI [28] | TGI [29] | TGI [30] | TGI [31] | TGI [32] | TGI [33] | TGI [34] | TGI [35] | TGI [36] | TGI [54] | TGI [37] | TGI [38] | TGI [39] | TGI [40] | TGI [41] | TGI [42] | TGI [55] | TGI [44] | TGI [56] | TGI [46] | TGI [47] | TGI [57] | TGI [48] | TGI [49] | TGI [50] | TGI [51] | TGI [52]
